From US20230265151A1, “GIP/GLP1 CO-AGONIST COMPOUNDS” (priority 2020, published 2023)
Like-named read-outs stand apart in the source and are kept apart here.

Experiments:
Type in all cases: cell-based
hGIPR = target: T1, hGIPR (Homo sapiens, UniProt P48546); assay: Functional cAMP formation (HTRF) in HEK-293 clonal cells expressing hGIPR, 0.1% bovine casein, without or with 1.0% human serum albumin; conditions: for EC50: geometric mean
T1 construct: expressed in transfected cells
T1 sequence (P48546 22-466): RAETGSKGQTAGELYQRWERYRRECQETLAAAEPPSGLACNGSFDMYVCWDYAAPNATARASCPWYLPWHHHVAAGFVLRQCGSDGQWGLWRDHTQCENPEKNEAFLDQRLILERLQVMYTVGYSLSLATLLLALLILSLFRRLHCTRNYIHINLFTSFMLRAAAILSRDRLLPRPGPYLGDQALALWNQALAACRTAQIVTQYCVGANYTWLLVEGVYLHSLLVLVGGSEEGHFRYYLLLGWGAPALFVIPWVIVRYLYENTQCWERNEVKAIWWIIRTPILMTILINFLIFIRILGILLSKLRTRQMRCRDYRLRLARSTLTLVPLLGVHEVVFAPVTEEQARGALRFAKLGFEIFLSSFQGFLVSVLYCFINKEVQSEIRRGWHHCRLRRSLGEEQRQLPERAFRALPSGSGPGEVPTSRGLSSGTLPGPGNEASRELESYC
Summary of the method: (§1)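 Cells were stimulated with peptide for 30 min at 37° C, then intracellular cAMP was measured by competitive HTRF (665/620 nm ratio) and converted to nM using a cAMP standard curve. Relative EC50 and Emax came from four-parameter logistic fits of percent maximal response against peptide concentration.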

hGCGR = target: T2, hGCGR (Homo sapiens, UniProt P47871); assay: Functional cAMP formation (HTRF) in HEK-293 clonal cells expressing hGCGR, 0.1% bovine casein, without or with 1.0% human serum albumin
T2 construct: expressed in transfected cells
Summary of the method: as §1

hGLP-1R = hGLP-1R (Homo sapiens, UniProt P43220); assay: Functional cAMP formation (HTRF) in HEK-293 clonal cells expressing hGLP-1R, 0.1% bovine casein, without or with 1.0% human serum albumin; set-up: expressed in transfected cells; conditions: for EC50: cAMP
Summary of the method: as §1

[1] = HEK293, 0.1% bovine casein and 1.0% human serum albumin, 37° C., percent of maximal response to GIP(1-42)NH2, read-out: hGIPR Emax, % ± SEM
[2] = 0.1% bovine casein and 1.0% human serum albumin, 37° C., geometric mean, read-out: hGCGR EC50, nM (SEM, n)
[3] = cAMP, 37° C., 0.1% bovine casein (no human serum albumin), geometric mean, read-out: hGCGR EC50, nM (SEM, n)
[4] = 37° C., 0.1% bovine casein (no human serum albumin), geometric mean, read-out: hGLP-1R EC50, nM (SEM, n)

Sequence of hGLP-1R (P43220 24-463): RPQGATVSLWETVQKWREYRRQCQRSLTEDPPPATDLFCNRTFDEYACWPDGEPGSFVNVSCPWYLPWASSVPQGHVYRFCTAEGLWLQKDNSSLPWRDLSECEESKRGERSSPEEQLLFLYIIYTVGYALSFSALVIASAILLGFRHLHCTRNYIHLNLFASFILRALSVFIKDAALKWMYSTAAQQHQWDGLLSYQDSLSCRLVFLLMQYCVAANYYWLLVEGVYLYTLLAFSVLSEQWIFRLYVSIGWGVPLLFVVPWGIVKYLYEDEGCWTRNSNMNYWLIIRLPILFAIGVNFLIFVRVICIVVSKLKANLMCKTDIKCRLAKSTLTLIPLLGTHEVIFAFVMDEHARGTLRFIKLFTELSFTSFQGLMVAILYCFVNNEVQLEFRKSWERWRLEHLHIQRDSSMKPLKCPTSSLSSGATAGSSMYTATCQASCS
T2 sequence (P47871 26-477): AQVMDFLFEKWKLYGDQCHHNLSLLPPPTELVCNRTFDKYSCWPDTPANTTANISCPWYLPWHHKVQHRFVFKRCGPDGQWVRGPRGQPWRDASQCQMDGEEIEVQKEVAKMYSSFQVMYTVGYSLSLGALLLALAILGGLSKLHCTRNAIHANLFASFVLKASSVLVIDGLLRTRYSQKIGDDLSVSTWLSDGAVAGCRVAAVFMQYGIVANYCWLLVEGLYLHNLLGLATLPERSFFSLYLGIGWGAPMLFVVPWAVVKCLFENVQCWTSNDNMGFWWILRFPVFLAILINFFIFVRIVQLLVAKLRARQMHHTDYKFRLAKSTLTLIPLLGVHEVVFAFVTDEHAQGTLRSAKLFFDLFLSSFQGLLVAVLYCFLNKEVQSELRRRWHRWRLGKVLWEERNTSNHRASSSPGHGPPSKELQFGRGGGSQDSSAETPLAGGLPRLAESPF

CC[C@H](C)[C@H](NC(=O)[C@H](CC(C)C)NC(=O)[C@](C)(Cc1ccc(O)cc1)NC(=O)[C@@H](CCC(=O)O)NC(=O)[C@@H](NC(=O)[C@](C)(Cc1ccccc1F)NC(=O)[C@H](CCC(=O)O)NC(=O)C(C)(C)NC(=O)[C@H](CCC(N)=O)NC(=O)[C@H](C)NC(=O)[C@H](CCCCNC(=O)COCCOCCNC(=O)COCCOCCNC(=O)CC[C@H](NC(=O)CCCCCCCCCCCCC(=O)O)C(=O)O)NC(=O)[C@H](CCCN)NC(=O)[C@H](CC(=O)O)NC(=O)[C@H](CC(C)C)NC(=O)[C@](C)(CC(C)C)NC(=O)[C@@H](NC(=O)[C@H](CO)NC(=O)[C@H](Cc1ccncc1)NC(=O)[C@H](CC(=O)O)NC(=O)[C@H](CO)NC(=O)[C@@H](NC(=O)[C@](C)(Cc1ccccc1F)NC(=O)[C@@H](NC(=O)CNC(=O)[C@H](CCC(=O)O)NC(=O)C(C)(C)NC(=O)[C@@H](N)Cc1ccc(O)cc1)[C@@H](C)O)[C@@H](C)O)[C@@H](C)CC)[C@@H](C)CC)C(=O)N[C@@H](CCC(=O)O)C(=O)NCC(=O)NCC(=O)N[C@@H](CCCCNC(=O)COCCOCCNC(=O)COCCOCCNC(=O)CC[C@H](NC(=O)CCCCCCCCCCCCC(=O)O)C(=O)O)C(=O)N[C@@H](CO)C(=O)N[C@@H](CO)C(=O)NCC(=O)N[C@@H](C)C(=O)N1CCC[C@H]1C(=O)N1CCC[C@H]1C(=O)N1CCC[C@H]1C(=O)N[C@@H](CO)C(N)=O [Example 88]
EC50 (hGIPR; 0.1% bovine casein and 1.0% human serum albumin, 37° C., read-out: hGIPR EC50, nM (SEM, n)): 0.591 nM
Emax (hGIPR; [1]): 80.3%
Emax (hGIPR; HEK293, percent of maximal response to GIP(1-42)NH2, 37° C., 0.1% bovine casein, arithmetic mean, read-out: hGIPR Emax, % ± SEM): 85.1%
EC50 (hGCGR; [2]): > 9950 nM
EC50 (hGCGR; cAMP, incubated at 37° C., 0.1% bovine casein (no human serum albumin), geometric mean, read-out: hGCGR EC50, nM (SEM, n)): > 9950 nM
Emax (hGLP-1R; HEK293, percent of maximal response to GLP-1(7-36)NH2, 37° C., 0.1% bovine casein, arithmetic mean, read-out: hGLP-1R Emax, % ± SEM): 97.1%

CCCCCCCCCCCC(=O)N[C@@H](CCC(=O)NCCOCCOCC(=O)NCCOCCOCC(=O)NCCCC[C@H](NC(=O)[C@H](CCCN)NC(=O)[C@H](CC(=O)O)NC(=O)[C@H](CC(C)C)NC(=O)[C@](C)(CC(C)C)NC(=O)[C@@H](NC(=O)[C@H](CO)NC(=O)[C@H](CCc1ccc(O)cc1)NC(=O)[C@H](CC(=O)O)NC(=O)[C@H](CO)NC(=O)[C@@H](NC(=O)[C@](C)(Cc1ccccc1F)NC(=O)[C@@H](NC(=O)CNC(=O)[C@H](CCC(=O)O)NC(=O)C(C)(C)NC(=O)[C@@H](N)Cc1ccc(O)cc1)[C@@H](C)O)[C@@H](C)O)[C@@H](C)CC)C(=O)N[C@@H](C)C(=O)N[C@@H](CCC(N)=O)C(=O)NC(C)(C)C(=O)N[C@@H](CCCCNC(=O)COCCOCCNC(=O)COCCOCCNC(=O)CC[C@H](NC(=O)CCCCCCCCCCC)C(=O)O)C(=O)N[C@@H](Cc1ccccc1)C(=O)N[C@H](C(=O)N[C@H](CCC(=O)O)C(=O)N[C@@](C)(Cc1ccc(O)cc1)C(=O)N[C@@H](CC(C)C)C(=O)N[C@H](C(=O)N[C@@H](CCC(=O)O)C(=O)NCC(=O)NCC(=O)N1CCC[C@H]1C(=O)N[C@@H](CO)C(=O)N[C@@H](CO)C(=O)NCC(=O)N[C@@H](C)C(=O)N1CCC[C@H]1C(=O)N1CCC[C@H]1C(=O)N1CCC[C@H]1C(=O)N[C@@H](CO)C(N)=O)[C@@H](C)CC)[C@@H](C)CC)C(=O)O [Example 323]
Emax (hGIPR; HEK293, cAMP, 37° C., 0.1% bovine casein and 1.0% human serum albumin, percent of maximal response to GIP(1-42)NH2, read-out: hGIPR Emax, % ± SEM): 92.9%
EC50 (hGCGR; [3]): > 9950 nM
EC50 (hGCGR; cAMP, 37° C., 0.1% bovine casein and 1.0% human serum albumin, geometric mean (SEM, n), read-out: hGCGR EC50, nM (SEM, n)): > 9950 nM
Emax (hGLP-1R; HEK293, cAMP, 37° C., 0.1% bovine casein, percent of maximal response to GLP-1(7-36)NH2, arithmetic mean, read-out: hGLP-1R Emax, % ± SEM): 92.6%
EC50 (hGLP-1R; [4]): 0.203 nM

CC[C@H](C)[C@H](NC(=O)[C@H](CC(C)C)NC(=O)[C@](C)(Cc1ccc(O)cc1)NC(=O)[C@H](CCCCNC(=O)CCOCCOCCOCCOCCOCCNC(=O)CC[C@H](NC(=O)CCCCCCCCCOc1ccc(C(=O)O)cc1)C(=O)O)NC(=O)[C@@H](NC(=O)[C@H](Cc1ccccc1)NC(=O)[C@H](CCCN)NC(=O)C(C)(C)NC(=O)[C@H](CCC(N)=O)NC(=O)[C@H](C)NC(=O)[C@H](CCC(N)=O)NC(=O)[C@H](CCCN)NC(=O)[C@H](CC(=O)O)NC(=O)[C@H](CC(C)C)NC(=O)[C@](C)(CC(C)C)NC(=O)[C@@H](NC(=O)C(C)(C)NC(=O)[C@H](Cc1ccncc1)NC(=O)[C@H](CC(=O)O)NC(=O)[C@H](CO)NC(=O)[C@@H](NC(=O)[C@](C)(Cc1ccccc1F)NC(=O)[C@@H](NC(=O)CNC(=O)[C@H](CCC(=O)O)NC(=O)C(C)(C)NC(=O)[C@@H](N)Cc1ccc(O)cc1)[C@@H](C)O)[C@@H](C)O)[C@@H](C)CC)[C@@H](C)CC)C(=O)N[C@@H](CCCCNC(=O)CCOCCOCCOCCOCCOCCNC(=O)CC[C@H](NC(=O)CCCCCCCCCOc1ccc(C(=O)O)cc1)C(=O)O)C(=O)NCC(=O)NCC(=O)N1CCC[C@H]1C(=O)N[C@@H](CO)C(=O)N[C@@H](CO)C(=O)NCC(=O)N[C@@H](C)C(=O)N1CCC[C@H]1C(=O)N1CCC[C@H]1C(=O)N1CCC[C@H]1C(=O)N[C@@H](CO)C(N)=O [Example 469]
Emax (hGIPR; HEK293, read-out: hGIPR Emax, % ± SEM, cAMP, 37° C., 0.1% bovine casein and 1.0% human serum albumin, percent of maximal response to GIP(1-42)NH2): 82.1%
EC50 (hGIPR; hGIPR EC50, nM (SEM, n), cAMP, 37° C., 0.1% bovine casein (no human serum albumin)): 0.0121 nM
EC50 (hGCGR; hGCGR EC50, nM (SEM, n), cAMP, 37° C., 0.1% bovine casein (no human serum albumin), geometric mean): > 9950 nM
EC50 (hGCGR; hGCGR EC50, nM (SEM, n), cAMP, 37° C., 0.1% bovine casein and 1.0% human serum albumin, geometric mean (SEM, n)): > 9950 nM
Emax (hGLP-1R; HEK293, read-out: hGLP-1R Emax, % ± SEM, cAMP, 37° C., 0.1% bovine casein and 1.0% human serum albumin, percent of maximal response to GLP-1(7-36)NH2): 93.8%
Emax (hGLP-1R; HEK293, read-out: hGLP-1R Emax, % ± SEM, cAMP, 37° C., 0.1% bovine casein, percent of maximal response to GLP-1(7-36)NH2, arithmetic mean): 111%
EC50 (hGLP-1R; hGLP-1R EC50, nM (SEM, n), 37° C., 0.1% bovine casein (no human serum albumin), geometric mean): 0.161 nM
EC50 (hGLP-1R; hGLP-1R EC50, nM (SEM, n), 37° C., 0.1% bovine casein and 1.0% human serum albumin, geometric mean (SEM, n)): 2.33 nM

CC[C@H](C)[C@H](NC(=O)[C@H](CCCN)NC(=O)[C@H](CC(=O)O)NC(=O)[C@H](CC(C)C)NC(=O)[C@](C)(CC(C)C)NC(=O)[C@@H](NC(=O)[C@](C)(CO)NC(=O)[C@H](Cc1ccc(O)cc1)NC(=O)[C@H](CC(=O)O)NC(=O)[C@H](CO)NC(=O)[C@@H](NC(=O)[C@](C)(Cc1ccccc1F)NC(=O)[C@@H](NC(=O)CNC(=O)[C@H](CCC(=O)O)NC(=O)C(C)(C)NC(=O)[C@@H](N)Cc1ccc(O)cc1)[C@@H](C)O)[C@@H](C)O)[C@@H](C)CC)C(=O)N[C@@H](C)C(=O)N[C@@H](CCC(N)=O)C(=O)NC(C)(C)C(=O)N[C@@H](CCC(=O)O)C(=O)N[C@@H](Cc1ccccc1)C(=O)N[C@H](C(=O)N[C@@H](CCCCNC(=O)COCCOCCNC(=O)COCCOCCNC(=O)CC[C@H](NC(=O)CCCCCCCCCCCCC(=O)O)C(=O)O)C(=O)N[C@@](C)(Cc1ccc(O)cc1)C(=O)N[C@@H](CC(C)C)C(=O)N[C@H](C(=O)N[C@@H](CCCCNC(=O)COCCOCCNC(=O)COCCOCCNC(=O)CC[C@H](NC(=O)CCCCCCCCCCCCC(=O)O)C(=O)O)C(=O)NCC(=O)NCC(=O)N1CCC[C@H]1C(=O)N[C@@H](CO)C(=O)N[C@@H](CO)C(=O)NCC(=O)N[C@@H](C)C(=O)N1CCC[C@H]1C(=O)N1CCC[C@H]1C(=O)N1CCC[C@H]1C(=O)N[C@@H](CO)C(N)=O)[C@@H](C)CC)[C@@H](C)CC [Example 303]
Emax (hGIPR; [1]): 89.8%
Emax (hGIPR; HEK293, cAMP, 37° C., 0.1% bovine casein, percent of maximal response to GIP(1-42)NH2, arithmetic mean, read-out: hGIPR Emax, % ± SEM): 100%
EC50 (hGIPR; cAMP, 37° C., 0.1% bovine casein (no human serum albumin), read-out: hGIPR EC50, nM (SEM, n)): 0.0178 nM
EC50 (hGCGR; [2]): > 9950 nM
EC50 (hGCGR; [3]): > 9950 nM
Emax (hGLP-1R; HEK293, 0.1% bovine casein and 1.0% human serum albumin, 37° C., percent of maximal response to GLP-1(7-36)NH2, read-out: hGLP-1R Emax, % ± SEM): 111%
EC50 (hGLP-1R; [4]): 0.389 nM
